Assay results as given in US20230339952A1, “MACROCYCLIC HETEROCYCLES AND USES THEREOF” (Kumquat Biosciences Inc., priority 2022, published 2023).
Like-named read-outs stand apart in the source and are kept apart here.

Assays:
[1] = tested on: NCI-H1975 (ATCC CRL-5908) cell line comprising an EGFR T790M L858R double mutation; experiment: EGFR-SOS cellular inhibition assay (CellTiter-Glo cell proliferation); assay type: cell-based; details: Homo sapiens
Protocol: A CellTiter-Glo (CTG) luminescent based assay (Promega) is used to assess growth of the cells, as a measurement of the ability of the compounds herein to inhibit EGFR signaling in the cells. […] The day after plating, cells are treated with a dilution series (e.g., a 9 point 3-fold dilution series) of the compounds herein (e.g., approximately 125 μL final volume per well).

[2] = tested on: MIA PaCa-2 cells (K-Ras G12C); experiment: Ras-SOS cellular growth inhibition assay (CellTiter-Glo); details: Homo sapiens, MIA PaCa-2, 120 h, read-out: IC50 in inhibiting MIA PaCa-2 cell growth
Protocol: A CellTiter-Glo (CTG) luminescent based assay (Promega) is used to assess growth of the cells, as a measurement of the ability of the compounds herein to inhibit Ras signaling in the cells. […] The day after plating, cells are treated with a dilution series (e.g., a 9 point 3-fold dilution series) of the compounds herein (e.g., approximately 125 μL final volume per well). Cell viability can be monitored (e.g., approximately 5 days later) according to the manufacturer's recommended instructions, where the CellTiter-Glo reagent is added (e.g., approximately 65 μL), vigorously mixed, covered, and placed on a plate shaker (e.g., approximately for 20 min) to ensure sufficient cell lysis prior to assessment of luminescent signal. The IC50 values are determined using the four-parameter fit. The resulting IC50 value is a measurement of the ability of the compounds herein to reduce cell growth of Ras-driven cells as representative tumor cells.

SOS1 = SOS1 (Homo sapiens (Human), UniProt Q07889); experiment: Ras-SOS interaction assay (HTRF), K-Ras G13D utilized; assay type: binding; details: K-Ras G13D
[3] = DCM
[4] = 120 h, NCI-H1975 cell proliferation, approximately 5 days, read-out: H1975 IC50
[5] = NCI-H1975, EGFR T790M L858R double mutation, read-out: IC50 in inhibiting growth of NCI-H1975 cell line
[6] = read-out: IC50 value against SOS1

Sequence of SOS1 (Q07889 564-1049): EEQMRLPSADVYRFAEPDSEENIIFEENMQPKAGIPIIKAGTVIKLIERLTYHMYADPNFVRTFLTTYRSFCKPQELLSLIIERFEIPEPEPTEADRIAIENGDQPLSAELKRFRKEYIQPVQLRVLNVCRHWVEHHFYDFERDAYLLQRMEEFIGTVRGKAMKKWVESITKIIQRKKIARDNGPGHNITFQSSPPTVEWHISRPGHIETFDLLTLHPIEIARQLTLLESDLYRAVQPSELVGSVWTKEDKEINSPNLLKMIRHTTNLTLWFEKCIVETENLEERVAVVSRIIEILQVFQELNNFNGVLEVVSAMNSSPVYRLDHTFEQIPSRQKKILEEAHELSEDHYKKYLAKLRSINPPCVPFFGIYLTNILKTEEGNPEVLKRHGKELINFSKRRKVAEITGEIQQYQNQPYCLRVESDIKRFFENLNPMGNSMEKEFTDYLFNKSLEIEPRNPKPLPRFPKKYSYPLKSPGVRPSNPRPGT

| SMILES | IC50 [1, 4] | IC50 [1, 5] | IC50 [2] | IC50 (SOS1; read-out: SOS1 IC50) | IC50 (SOS1; [6]) | ring closure, yield of all isomers ([3]; from C=CCCCCn1c(=O)c(C2CCS(=O)(=O)CC2)cc2c(N[C@H](C)c3cccc(C(F)(F)C4CCN(CC=C)CC4)c3)nc(C)nc21, rcm bond, Grubbs II, 4.48 mM, 25.0 °C, 16.0 h) | ring closure, yield of all isomers ([3]; from C=CCCCCCn1c(=O)c(C2(C#N)CC2)cc2c(N[C@H](C)c3cccc(C(F)(F)C4CCN(CC=C)CC4)c3)ncnc21, rcm bond, Grubbs II catalyst, 1.41 mM, 40.0 °C) | ring closure, yield of all isomers ([3]; from COc1cc2nc(C)nc(N[C@H](C)c3ccc(-c4ccccc4C=O)s3)c2cc1OCCOCCOCCOCCOCCN, amine bond, NaBH3CN, 28.4 mM, 25.0 °C, 16.0 h, 2 steps) |
| --- | --- | --- | --- | --- | --- | --- | --- | --- |
| C[C@H]1Nc2nc(=O)n(c3c2cc(C2(C#N)CC2)c(=O)n3C)CC/C=C\CN2CCC(CC2)C(F)(F)c2cccc1c2 [Compound 6, 1-((6^3E,4R,9Z)-2,2-difluoro-6^8,4-dimethyl-6^2,6^7-dioxo-6^1,6^2,6^7,6^8-tetrahydro-5-aza-6(4,1)-pyrido[2,3-d]pyrimidina-1(4,1)-piperidina-3(1,3)-benzenacycloundecaphan-9-en-6^6-yl)cyclopropane-1-carbonitrile] | < 1000 nM | < 500 nM | < 1000 nM | < 100 nM | – | – | – | – |
| Cc1nc2c3cc(C4CCS(=O)(=O)CC4)c(=O)n(c3n1)CCCC/C=C\CN1CCC(CC1)C(F)(F)c1cccc(c1)[C@@H](C)N2 [Compound 174, (4R,Z)-6^6-(1,1-dioxidotetrahydro-2H-thiopyran-4-yl)-2,2-difluoro-6^2,4-dimethyl-6^7,6^8-dihydro-5-aza-6 (4,8)-pyrido[2,3-d]pyrimidina-1(4,1)-piperidina-3(1,3)-benzenacyclotridecaphan-11-en-6^7-one] | < 1000 nM | < 500 nM | < 1000 nM | < 100 nM | < 50 nM | – | – | – |
| C[C@H]1Nc2ncnc3c2cc(C2(C#N)CC2)c(=O)n3CCCCCCCCN2CCC(CC2)C(F)(F)c2cccc1c2 [Compound 54, 1-((4R)-2,2-difluoro-4-methyl-6^7-oxo-6^7,6^8-dihydro-5-aza-6(4,8)-pyrido[2,3-d]pyrimidina-1(4,1)-piperidina-3(1,3)-benzenacyclotetradecaphane-6^6-yl)cyclopropane-1-carbonitrile] | < 1000 nM | < 500 nM | < 1000 nM | – | – | – | – | – |
| Cc1nc2c3cc(C4(C#N)CC4)c(=O)n(c3n1)CCCCC/C=C\CN1CCC(CC1)C(F)(F)c1cccc(c1)[C@@H](C)N2 [Compound 171, 1-((4R,Z)-2,2-difluoro-6^2,4-dimethyl-6^7-oxo-6^7,6^8-dihydro-5-aza-6(4,8)-pyrido[2,3-d]pyrimidina-1(4,1)-piperidina-3(1,3)-benzenacyclotetradecaphan-12-en-6^6-yl)cyclopropane-1-carbonitrile] | < 1000 nM | < 500 nM | < 1000 nM | < 100 nM | < 50 nM | – | – | – |
| Cc1nc2c3cc(C4CCS(=O)(=O)CC4)c(=O)n(c3n1)CCCCC=CCN1CCC(CC1)C(F)(F)c1cccc(c1)[C@@H](C)N2 | – | – | – | – | – | 64.2% | – | – |
| Cc1nc2c3cc(C4CCS(=O)(=O)CC4)c(=O)n(c3n1)CCCCCCCN1CCC(CC1)C(F)(F)c1cccc(c1)[C@@H](C)N2 [Compound 173, (4R)-6^6-(1,1-dioxidotetrahydro-2H-thiopyran-4-yl)-2,2-difluoro-6^2,4-dimethyl-6^7,6^8-dihydro-5-aza-6(4,8)-pyrido[2,3-d]pyrimidina-1(4,1)-piperidina-3(1,3)-benzenacyclotridecaphan-6^7-one] | < 1000 nM | < 500 nM | < 1000 nM | < 100 nM | < 50 nM | – | – | – |
| C[C@H]1Nc2ncnc3c2cc(C2(C#N)CC2)c(=O)n3CCCCCC=CCN2CCC(CC2)C(F)(F)c2cccc1c2 | – | – | – | – | – | – | 18.5% | – |
| COc1cc2nc(C)nc3c2cc1OCCOCCOCCOCCOCCNCc1ccccc1C1=CC=C(S1)[C@@H](C)N3 [Compound 56, (R)-5^7-methoxy-5^2,3-dimethyl-6,9,12,15,18-pentaoxa-4,21-diaza-5(4,6)-quinazolina-2(2,5)-thiophena-1(1,2)-benzenacyclodocosaphane] | – | – | – | 100 to 5000 nM | – | – | – | 59.3% |
| Cc1nc2c3cc(C4(C#N)CC4)c(=O)n(c3n1)CCC/C=C\CN1CCC(CC1)C(F)(F)c1cccc(c1F)[C@@H](C)N2 [Compound 170, 1-((4R,Z)-3^2,2,2-trifluoro-6^2,4-dimethyl-6^7-oxo-6^7,6^8-dihydro-5-aza-6(4,8)-pyrido[2,3-d]pyrimidina-1(4,1)-piperidina-3(1,3)-benzenacyclododecaphan-10-en-6^6-yl)cyclopropane-1-carbonitrile] | < 1000 nM | < 500 nM | < 1000 nM | < 100 nM | < 50 nM | – | – | – |
| C[C@H]1Nc2ncnc3c2cc(C2(C#N)CC2)c(=O)n3CCCCC/C=C\CN2CCC(CC2)C(F)(F)c2cccc1c2 [Compound 120, 1-((4R,Z)-2,2-difluoro-4-methyl-6^7-oxo-6^7,6^8-dihydro-5-aza-6(4,8)-pyrido[2,3-d]pyrimidina-1(4,1)-piperidina-3(1,3)-benzenacyclotetradecaphan-12-en-6^6-yl)cyclopropane-1-carbonitrile] | < 1000 nM | < 500 nM | < 1000 nM | < 100 nM | < 50 nM | – | – | – |
| Cc1nc2c3cc(C4CCS(=O)(=O)CC4)c(=O)n(c3n1)CCCCC/C=C\CC(C)(O)C(F)(F)c1cccc(c1)[C@@H](C)N2 (stereo partly drawn) [Compound 101, (3R,Z)-1^6-(1,1-dioxidotetrahydro-2H-thiopyran-4-yl)-5,5-difluoro-6-hydroxy-1^2,3,6-trimethyl-1^7,1^8-dihydro-2-aza-1(4,8)-pyrido[2,3-d]pyrimidina-4(1,3)-benzenacyclotetradecaphan-8-en-1^7-one] | < 1000 nM | < 500 nM | < 1000 nM | < 100 nM | < 50 nM | – | – | – |
| C[C@H]1Nc2ncnc3c2cc(C2(C#N)CC2)c(=O)n3CCCCCCCN2CCC(CC2)C(F)(F)c2cccc1c2 [Compound 61, 1-((4R)-2,2-difluoro-4-methyl-6^7-oxo-6^7,6^8-dihydro-5-aza-6(4,8)-pyrido[2,3-d]pyrimidina-1(4,1)-piperidina-3(1,3)-benzenacyclotridecaphane-6^6-yl)cyclopropane-1-carbonitrile] | < 1000 nM | < 500 nM | < 1000 nM | < 100 nM | < 50 nM | – | – | – |
| Cc1nc2c3cc(C4(C#N)CC4)c(=O)n(c3n1)CCCCCCCN1CCC(CC1)C(F)(F)c1cccc(c1F)[C@@H](C)N2 [Compound 167, 1-((4R)-3^2,2,2-trifluoro-6^2,4-dimethyl-6^7-oxo-6^7,6^8-dihydro-5-aza-6(4,8)-pyrido[2,3-d]pyrimidina-1(4,1)-piperidina-3(1,3)-benzenacyclotridecaphane-6^6-yl)cyclopropane-1-carbonitrile] | < 1000 nM | < 500 nM | < 1000 nM | < 100 nM | < 50 nM | – | – | – |
| Cc1nc2c3cc(C4(C#N)CC4)c(=O)n(c3n1)CCCCCOCC(F)(F)c1cccc(c1F)[C@@H](C)N2 [Compound 88, 1-((3R)-4^2,5,5-trifluoro-1^2,3-dimethyl-1^7-oxo-1^7,1^8-dihydro-7-oxa-2-aza-1(4,8)-pyrido[2,3-d]pyrimidina-4(1,3)-benzenacyclododecaphane-1^6-yl)cyclopropane-1-carbonitrile] | > 10000 nM | – | – | 100 to 5000 nM | – | – | – | – |
| C[C@H]1Nc2ncnc3c2cc(N2CCN(C4COC4)CC2)c(=O)n3CCCCCCCN2CCC(CC2)C(F)(F)c2cccc1c2F [Compound 179, (4R)-3^2,2,2-trifluoro-4-methyl-6^6-(4-(oxetan-3-yl)piperazin-1-yl)-6^7,6^8-dihydro-5-aza-6(4,8)-pyrido[2,3-d]pyrimidina-1(4,1)-piperidina-3(1,3)-benzenacyclo-tridecaphan-6^7-one] | < 1000 nM | – | – | < 100 nM | – | – | – | – |
| C[C@H]1Nc2ncnc3c2cc(N2CCS(=O)(=O)CC2)c(=O)n3CCCCCCCN2CCC(CC2)C(F)(F)c2cccc1c2F [Compound 38, (4R)-6^6-(1,1-dioxidothiomorpholino)-3^2,2,2-trifluoro-4-methyl-6^7,6^8-dihydro-5-aza-6(4,8)-pyrido[2,3-d]pyrimidina-1(4,1)-piperidina-3(1,3)-benzenacyclotridecaphan-6^7-one] | < 1000 nM | – | – | < 100 nM | – | – | – | – |
| Cc1nc2c3cc(C4(C#N)CC4)c(=O)n(c3n1)CCCCCCCCC(C)(O)C(F)(F)c1cccc(c1)[C@@H](C)N2 (stereo partly drawn) [Compound 9, 1-((3R)-5,5-difluoro-6-hydroxy-1^2,3,6-trimethyl-1^7-oxo-1^7,1^8-dihydro-2-aza-1(4,8)-pyrido[2,3-d]pyrimidina-4(1,3)-benzenacyclotetradecaphane-1^6-yl)cyclopropane-1-carbonitrile] | < 1000 nM | – | < 1000 nM | 100 to 5000 nM | – | – | – | – |
| CC1C/C=C\CCCN2CCC(CC2)C(F)(F)c2cccc(c2F)[C@@H](C)Nc2ncnc3c2cc(C2(C#N)CC2)c(=O)n31 (stereo partly drawn) [Compound 97, 1-((4R,Z)-3^2,2,2-trifluoro-4,7-dimethyl-6^7-oxo-6^7,6^8-dihydro-5-aza-6(4,8)-pyrido[2,3-d]pyrimidina-1(4,1)-piperidina-3(1,3)-benzenacyclotridecaphan-9-en-6^6-yl)cyclopropane-1-carbonitrile] | < 1000 nM | – | – | < 100 nM | – | – | – | – |
